# Measured values from patent US9879043B1, “Synthesis of non-natural cofactor analogs of S-adenosyl-L-methionine using methionine adenosyltransferase” (University of Kentucky Research Foundation, priority 2013, dated 2018).
# Assays:
# Test in all cases: MAT assay, turnover of S/Se-Met analogs to S(Se)AM analogs (RP-HPLC end point)
# Format in all cases: biochemical
# [1] = biological target: human MAT I catalytic subunit alpha (hMAT1A) (Homo sapiens, UniProt Q00266); conditions: 2 mM Met analog, 1 mM ATP, 5 μM MAT, pH 8, 4 h, 37° C.; average of two assays
# [2] = biological target: human MAT II catalytic alpha and regulatory beta subunit (hMAT2) (Homo sapiens, UniProt P31153); conditions: 2 mM Met analog, 1 mM ATP, 5 μM MAT, pH 8, 4 h, 37° C.; average of two assays
# [3] = biological target: human MAT II catalytic alpha subunit alone (hMAT2A) (Homo sapiens, UniProt P31153); conditions: 2 mM Met analog, 1 mM ATP, 5 μM MAT, pH 8, 4 h, 37° C., average of two assays
compound,measurement,setting,value
"CCSCC[C@H](N)C(=O)O [compound 3, (2S)-2-amino-4-(ethylsulfanyl)butanoic acid]",Percentage Turn-over hMAT1A,[1],75%
same,Percentage Turn-over hMAT2,[2],88%
same,Percentage Turn-over hMAT2A,[3],90%
same,Percentage Turn-over hMAT2A,[3]; listed as ethionine,~100%
